Results: patent US12220399B2, “Pharmaceutical compositions comprising one or more pyrone compounds, and their use for treating inflammatory and neurodegenerative diseases” (NeuroTheryX Canada LTD, priority 2015, dated 2025)

Experiments:
[1] = system: MO3-13 cells; test: Protection of MO3-13 oligodendrocytes from Cpz toxicity; format: cell-based, human; details: compound at 5 μM, Cpz at 50 μM, 24 hrs, visual assessment, FIG. 2
Procedure: The protective effects of compounds […] on MO3-13 cells from Cpz toxicity were then determined. […] Cpz at a final concentration of 50 μM was solubilized in 100% ethanol was added to selected dishes with compound A1 or A2 at 5 μM in DMSO, or DMSO alone as a control.

[2] = system: myelin basic protein (MBP); test: Induction of myelin basic protein (MBP) production, anti-MBP slot blot of MO3-13 whole cell extracts; format: cell-based, human; details: FIG. 3
Procedure: Dilutions (0.1 mg/mL) of MO3-13 whole cell extracts were prepared and the proteins (5 μg) from the dilutions were blotted onto nitrocellulose membrane using a slot blotter. The non-protein sites on the blot were blocked with 2% ECL block in PBS-Tween20. Primary anti-Bov MBP was diluted in block solution at 300×. The primary antibody was incubated overnight at 4° C. with gentle shaking. The following day the blot was developed using enhanced ECL (GE Healthcare) method. Image of bound antibody were captured using Image Lab software driving a Bio-Rad ChemiDoc XRS+ image capture system.

[3] = system: MO3-13 cells; details: differentiated (serum deprived 48 hrs) MO3-13 cells, increasing amounts of Cpz, 24 hrs, visual assessment by phase contrast, FIG. 1
Procedure: MO3-13 cells were plated onto 10 cm cell culture dishes and grown in DMEM containing 5% FBS. Cells were grown to 75% confluence, after which serum containing DMEM medium was replaced with FBS free DMEM. Cells were grown for 48 hrs under serum deprived conditions.

[4] = MO3-13 cells treated with Cpz (50 μM) plus compound (5 μM)
[5] = MO3-13 cells treated with compound alone (5 μM)

O=c1cc(-c2ccccc2)cc(-c2ccccc2)o1 [A3, 4,6-diphenyl-2H-pyran-2-one]
protection of human oligodendrocytes (MO3-13) against the toxicity of Cpz [1]: protection | MBP bound by anti-MBP [2, 4]: significantly higher | MBP bound by anti-MBP [2, 5]: significantly higher

O=C(NN=C1CCCCC1)C(=O)NN=C1CCCCC1 [Cpz, cuprizone, reference compound]
Cpz toxicity to MO3-13 cells [3]: toxic | anti-MBP antibody binding as compared with non-treated (DMSO) cells ([2]; MO3-13 cells treated with Cpz (50 μM)): reduced

O=c1cc(-c2ccccc2)cc(C2CCCCC2)o1 [compound A2, 6-cyclohexyl-4-phenyl-2H-pyran-2-one]
protection of human oligodendrocytes (MO3-13) against the toxicity of Cpz [1]: protection | MBP bound by anti-MBP [2, 4]: significantly higher | MBP bound by anti-MBP [2, 5]: significantly higher
